According to publication PMC9964319, “Half-Sandwich Rhodium Complexes with Releasable N-Donor Monodentate Ligands: Solution Chemical Properties and the Possibility for Acidosis Activation” (Pharmaceutics, 2023):
Values after ≈ are worked out from the molar mass of the structure shown. Read-outs that look alike come from different tables or passages of the source.

Columns and labels:
Assay type in all cases: cell-based
[1] = test system: Colo320 human colon adenocarcinoma cell line (doxorubicin-resistant); assay: MTT assay, cytotoxicity at pH 6 and 7; conditions: Colo320, 72 h incubation, read-out: IC50
Method: (§1) All cell culture reagents were obtained from Sigma-Aldrich (Merck KGaA, Darmstadt, Germany) and plasticware from Sarstedt (Nümbrecht, Germany). Human colonic adenocarcinoma cell lines Colo205 (catalog number: ATCC-CCL-222) and its doxorubicin-resistant counterpart Colo320 (catalog number: ATCC-CCL-220.1) were purchased from LGC Promochem (Teddington, UK). The cells were cultured in RPMI 1640 medium supplemented with 10% heat-inactivated fetal bovine serum, 2 mM L-glutamine, 1 mM sodium pyruvate, and 100 mM HEPES buffer, adjusting the pH to 6.0 or 7.0. The cells were incubated at 37 °C in a 5% CO2–95% air atmosphere. The semiadherent human colon cancer cells were detached with Trypsin-Versene solution for 5 min at 37 °C.
(§2) The solutions were freshly prepared prior to measurements (see Section 2.1). […] Firstly, these samples were diluted in complete culture medium; then, two-fold serial dilutions of the compounds were prepared in 100 μL of RPMI 1640, horizontally. The semiadherent colonic adenocarcinoma cells were treated with Trypsin-Versene solution. They were adjusted to a density of 1 × 10^4 cells in 100 μL of RPMI 1640 medium and were added to each well, with the exception of the medium control wells. The final volume of the wells containing compounds and cells was 200 μL. Samples were triplicated. The pH of the medium was adjusted to 6.0 or 7.0.
(§3) The culture plates were incubated at 37 °C for 72 h; at the end of the incubation period, 20 μL of MTT solution (from a stock solution of 5 mg/mL) was added to each well. After incubation at 37 °C for 4 h, 100 μL of SDS solution (10% in 0.01 M HCI) was added to each well, and the plates were further incubated at 37 °C overnight. Cell growth was determined by measuring the optical density (OD) at 540/630 nm with a Multiscan EX ELISA reader (Thermo Labsystems, Cheshire, WA, USA). […] Curves were fitted using GraphPad Prism software (2022, version 9.4.1, Graphpad Software (LLC) d.b.a Dotmatics, San Diego, CA, USA) using the sigmoidal dose–response model (comparing variable and fixed slopes).
(§4) The pH-dependent solution speciation of the selected mixed-ligand complexes is an important feature in the hypothesized mechanism of action, and the modeling of acidosis is necessary for the in vitro anticancer assays. In order to find out the cytotoxicity difference based on the pH of the medium, cytotoxic activity was determined at pH 6 and 7 by MTT assay in two human colon adenocarcinoma cell lines (doxorubicin-sensitive Colo205 and doxorubicin-resistant Colo320). […] The mixed-ligand complexes were prepared prior to the measurements, as was already described in Section 2.1. With this method, the effect of the different counter ions could be avoided, and a more adequate comparison of the mixed-ligand complexes could be conducted.

[2] = test system: Colo205 human colon adenocarcinoma cell line (doxorubicin-sensitive); assay: MTT assay, cytotoxicity at pH 6 and 7; conditions: Colo205, 72 h incubation, read-out: IC50
Method: as §1, §2, §3, §4

[3] = test system: E. coli 32313 (resistant); assay: Antibacterial assay, MIC in 96-well plates at different pH; conditions: E. coli resistant, after one day, read-out: MIC
Source text: (§5) The antibacterial effect was studied in two Gram-positive and in two Gram-negative strains. The Gram-positive S. aureus ATCC 25923 (ATCC, Manassas, VA, USA) is a methicillin-susceptible reference bacterial strain, while S. aureus 272123 is a clinical isolate and resistant to methicillin and ofloxacin (MRSA), which was given by Prof. Dr. Leonard Amaral (Institute of Hygiene and Tropical Medicine, Lisbon, Portugal). The Gram-negative strains were E. coli ATCC 25922 (ATCC, Manassas, VA, USA), which is sensitive to antibiotics, and E. coli 32313 (provided by the Institute of Clinical Microbiology, University of Szeged, Hungary), which is resistant to different antibiotics (trimethoprim/sulfamethoxazole, gentamicin, ciprofloxacin, and norfloxacin).
(§6) The minimum inhibitory concentrations (MICs) of the compounds were determined in 96-well plates based on the Clinical and Laboratory Standard Institute guidelines. The compounds were diluted in 100 μL of Mueller Hinton broth. Then, an overnight bacterial culture diluted 10,000 times in 100 μL of medium was added to each well, with the exception of the medium control wells. For each strain and each tested compound, four pH values were set (5, 6, 7, and 8). Each sample was triplicated.

[4] = test system: E. coli ATCC 25922 (sensitive); assay: as above; conditions: E. coli sensitive, after one day, read-out: MIC
Source text: as §5, §6

[5] = test system: S. aureus ATCC 25923 (methicillin-susceptible); assay: as above; conditions: Staphylococcus aureus, ATCC25923, 24 h, S. aureus sensitive, after one day, read-out: MIC
Source text: as §5, §6

S. aureus 272123 (MRSA) = assay: as above; conditions: Staphylococcus aureus, 24 h, read-out: MIC
Source text: as §5, §6

[6] = Escherichia coli, ATCC25922, 24 h, pH 5
[7] = Escherichia coli, ATCC25922, 24 h, pH 6
[8] = Escherichia coli, ATCC25922, 24 h, pH 7
[9] = Escherichia coli, ATCC25922, 24 h, pH 8

Row | Compound | MIC ([3]; Escherichia coli, 24 h, pH 5) [µM] | MIC ([3]; Escherichia coli, 24 h, pH 6) [µM] | MIC ([3]; Escherichia coli, 24 h, pH 7) [µM] | MIC ([3]; Escherichia coli, 24 h, pH 8) [µM] | MIC [4, 6] [µM] | MIC [4, 7] [µM] | MIC [4, 8] [µM] | MIC [4, 9] [µM] | MIC ([5]; pH 7) [µM] | MIC ([5]; pH 8) [µM] | MIC (S. aureus 272123 (MRSA); pH 5, after one day) [µM] | MIC (S. aureus 272123 (MRSA); pH 6, after one day) [µM] | MIC (S. aureus 272123 (MRSA); pH 7, after one day) [µM] | MIC (S. aureus 272123 (MRSA); pH 8, after one day) [µM] | other results
1 | CC1=C(C)C(C)C(C)=C1C.Cn1ccnc1.[Rh+3].c1cnc2c(c1)ccc1cccnc12 [[RhCp*(phen)(mim)]^2+] | – | – | – | – | – | – | – | – | – | – | – | – | – | – | IC50 ([1]; pH 6): 71.7 ± 3.3 µM; IC50 ([1]; pH 7): > 100 µM; IC50 ([2]; pH 6): > 100 µM; IC50 ([2]; pH 7): > 100 µM
2 | COc1cccc2c1C(=O)c1c(O)c3c(c(O)c1C2=O)C[C@@](O)(C(=O)CO)C[C@@H]3O[C@H]1C[C@H](N)[C@H](O)[C@H](C)O1 [doxorubicin, reference compound] | – | – | – | – | – | – | – | – | – | – | – | – | – | – | IC50 ([1]; Homo sapiens, COLO 320, pH 6): 0.46 ± 0.02 µM; IC50 ([2]; Homo sapiens, COLO 205, pH 6): 7.6 ± 0.3 µM; IC50 ([2]; Homo sapiens, COLO 205, pH 7): 0.71 ± 0.02 µM
3 | Clc1ccc(COC(Cn2ccnc2)c2ccc(Cl)cc2Cl)cc1 (centres unmarked) [econ, econazole, reference compound] | > 100 | > 100 | > 100 | > 100 | > 100 | > 100 | > 100 | > 100 | 0.78 (≈ 0.298 µg/mL) | 0.19 (≈ 0.0725 µg/mL) | 25 (≈ 9.54 µg/mL) | 12.5 (≈ 4.77 µg/mL) | 6.25 (≈ 2.39 µg/mL) | 3.12 (≈ 1.19 µg/mL) | MIC ([3]; pH 6): >100 µM; MIC ([3]; pH 7): >100 µM; MIC ([4]; pH 6): >100 µM; MIC ([4]; pH 7): >100 µM
4 | c1cnc2c(c1)ccc1cccnc12 [phen, 1,10-phenanthroline, reference compound] | 50 (≈ 9.01 µg/mL) | 50 (≈ 9.01 µg/mL) | 50 (≈ 9.01 µg/mL) | 50 (≈ 9.01 µg/mL) | 50 (≈ 9.01 µg/mL) | 50 (≈ 9.01 µg/mL) | 50 (≈ 9.01 µg/mL) | 25 (≈ 4.51 µg/mL) | > 100 | > 100 | 50 (≈ 9.01 µg/mL) | > 100 | > 100 | > 100 | –
5 | O=P(O)(O)C(O)(Cn1ccnc1)P(=O)(O)O [zol, zoledronic acid, reference compound] | > 100 | > 100 | > 100 | > 100 | > 100 | > 100 | > 100 | > 100 | > 100 | > 100 | > 100 | > 100 | > 100 | > 100 | –
